These results are taken from publication PMC12668310, “High‐Throughput Synthesis and Screening of a Cyanimide Library Identifies Selective Inhibitors of ISG15‐Specific Protease mUSP18” (Angewandte Chemie (International Ed. in English), 2025).

Structures are written as SMILES.

The target in one test is T1, OTUD1 (Homo sapiens, UniProt Q5VV17).
T1 sequence (Q5VV17 287-481): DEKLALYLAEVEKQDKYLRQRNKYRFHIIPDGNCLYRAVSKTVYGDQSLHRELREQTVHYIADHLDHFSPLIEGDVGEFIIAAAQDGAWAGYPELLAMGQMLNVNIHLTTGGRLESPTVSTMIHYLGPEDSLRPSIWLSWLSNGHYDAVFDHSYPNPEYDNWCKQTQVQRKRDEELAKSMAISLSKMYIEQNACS
In words: High-throughput screening, Ub-RhoMP, single dose 1.25 µM. It counts as biochemical. The conditions noted are these: crude in-plate synthesized compound, 1.25 µM assuming full conversion.

The test system of test [1] is cellular ISGylation in EL4 cells. In words: ISGylation accumulation in mouse IFN-β-stimulated EL4 cells (anti-mISG15 western blot). Conditions: 4 h treatment; for effect on cellular ISGylation: anti-mISG15 blot. In kind it is cell-based. The protocol:
Figure 6 Inhibition of murine USP18 activity in living cells. a) Gel‐based ABPP potency assessment using a Rho‐mISG15ct‐PA probe in HEK293T cells overexpressing Flag‐mUSP18. At 24 h following transfection, cells were incubated with DMSO or increasing concentrations of indicated inhibitors for 4 h, lysed, and treated with Rho‐mISG15ct‐PA probe. Top panel: fluorescence scan. Middle panel: anti‐Flag western blot. Bottom panel: anti‐GAPDH western blot confirms equal loading. b) Accumulation of ISGylation in mouse IFN‐β‐stimulated EL4 cells. At 24 h following mouse IFN‐β treatment, cells were incubated with DMSO or increasing concentrations of indicated inhibitors for 4 h, lysed, and treated with Rho‐mISG15ct‐PA probe. Top panel: anti‐mISG15 western blot. Middle panel: fluorescence scan. Bottom panel: anti‐β‐actin western blot confirms equal loading.
Ultimately, we were interested in whether USP18 inhibitor treatment could result in a relevant phenotype in cells. USP18 is the major deISGylase to remove ISG15 from target proteins, and genetic inactivation of USP18 isopeptidase activity leads to enhanced ISGylation in vivo and in cells.^[ [26] ^] We therefore examined whether the USP18 inhibitors enhance cellular ISGylation. Accordingly, EL4 cells were stimulated with IFN‐β to induce the ISG15 machinery, prior to treatment with the inhibitors. After cell lysis and SDS‐PAGE, ISGylated proteins were stained by immunoblotting with an ISG15 antibody (Figure 6b, top panel). […] To confirm inhibition of endogenous USP18 in these experiments, samples were post‐lysis treated with Rho‐mISG15ct‐PA probe.
Generation of ISGylation and in-cell inhibition assay
Mouse EL4 cells were stimulated with 300 U/mL mouse IFN-β. At 24 hours following stimulation, cells were incubated with indicated compounds at the indicated final concentrations at 37 °C for 4 hours, then washed twice with PBS and harvested for further […]
Activity-based probe labelling
The in-cell inhibition of DUBs and mUSP18 was assessed using activity-based probe labelling assays. In brief, cell pellets were resuspended in HR buffer (50 mM Tris-HCl, 5 mM MgCl 2, 250 mM sucrose, 2 mM TCEP and a Protease inhibitor tablet (Roche), pH 7.4), and lysed by sonication (Bioruptor, Diagenode, high intensity for 10 minutes with an ON/OFF cycle of 30 seconds) at 4°C. 40 μg clarified cell lysate was incubated with Rhodamine-mISG15ct-propargylamide probe[1] (final concentration 1 μM) or Rhodamine-Ubiquitin-propargylamide probe[13] (final concentration 1 μM) at 37 °C for 30 min. Reactions were stopped by the addition of LDS (lithium dodecyl sulfate) sample buffer (Invitrogen Life Technologies, Carlsbad, CA, USA) containing 2.5% β-mercaptoethanol, followed by boiling for 7 minutes.
SDS-PAGE, in-gel fluorescence scanning, and immunoblotting
Samples were resolved on precast Bis-Tris NuPAGE Gels (Invitrogen, including 4-12%, and 10% for different samples) using MOPS buffer (Invitrogen Life Technologies, Carlsbad, CA, USA). For fluorescence scan, labeled enzymes were visualized by in-gel fluorescence using a Typhoon FLA 9500 imaging system (GE Healthcare Life Sciences) (Rhodamine channel for probe, Cy5 channel for protein marker).
For immunoblotting, proteins were transferred to a nitrocellulose membrane (Protan BA85, 0.45 μm, GE Healthcare) at 300 mA for 3 hours. […]
(Immunoblotting shows a protein as a band on a membrane.)

For `N#CN1CC[C@@H](NC(=O)c2nc(N3CCCC3)ncc2Cl)C1` [BB01CA90], the “%inhibition OTUD1” value on OTUD1 was found to be 7.7%. On to `N#CN1CC[C@@H](NC(=O)C(Cc2c[nH]cn2)NS(=O)(=O)c2ccc(Cl)cc2)C1` (stereo partly drawn) [BB01CA91], for which the “%inhibition OTUD1” value at OTUD1 was -3.9%. Turning to `N#CN1CC[C@@H](NC(=O)Cc2csc(-c3cnccn3)n2)C1` [BB01CA92], at OTUD1, the “%inhibition OTUD1” value was -13.5%. On the same count and under the same terms, for `N#CN1CC[C@@H](NC(=O)CCN(Cc2ccccc2)S(=O)(=O)c2c(Cl)cccc2Cl)C1` [BB01CA93] the value was 1.5%. On the same count and under the same terms, for `N#CN1CC[C@@H](NC(=O)c2ncoc2-c2cccs2)C1` [BB01CA94] the value was -11.1%. Consider `Cc1cc(C(=O)N[C@H]2C[C@@H]3CN(C#N)C[C@@H]3C2)ccc1Br` [BB07CA28], for which, in test [1], the “concentration of maximum accumulation of ISGylation” value was 10 µM and the “effect on cellular ISGylation” value was “significantly elevated cellular ISGylation”. With `Cc1cc(C(=O)N[C@H]2C[C@@H]3CN(C#N)C[C@@H]3C2)ccc1C(C)C` [BB07CA902], in test [1], the “concentration of maximum accumulation of ISGylation” value is recorded as 10 µM and the “effect on cellular ISGylation” value is on record as “significantly elevated cellular ISGylation”.
